Experimental data as given in patent US10582709B2, “Butyrolactones as herbicides” (FMC Corporation, priority 2015, dated 2020).

What was measured:
Assay type in all cases: in vivo
[1] = test system: ragweed (common ragweed, Ambrosia elatior); test: Test A preemergence, ragweed; conditions: visual rating after approx. 10 d, 0 to 100 scale, 0 no effect, 100 complete control
Excerpt: (§1) Seeds of plant species selected from barnyardgrass (Echinochloa crus-galli), crabgrass (large crabgrass, Digitaria sanguinalis), kochia (Kochia scoparia), ragweed (common ragweed, Ambrosia elatior), morningglory (Ipomoea spp.), velvetleaf (Abutilon theophrasti), ryegrass, Italian (Italian ryegrass, Lolium multiflorum), foxtail, giant (giant foxtail, Setaria faberii), wheat (Triticum aestivum), corn (Zea mays), and pigweed (Amaranthus retroflexus), were planted into a blend of loam soil and sand and treated preemergence with a directed soil spray using test chemicals formulated in a non-phytotoxic solvent mixture which included a surfactant. At the same time, plants selected from these crop and weed species and also blackgrass (Alopecurus myosuroides), and galium (catchweed bedstraw, Galium aparine), were planted in pots containing the same blend of loam soil and sand and treated with postemergence applications of test chemicals formulated in the same manner. Plants ranged in height from 2 to 10 cm and were in the one- to two-leaf stage for the postemergence treatment. Treated plants and untreated controls were maintained in a greenhouse for approximately 10 d, after which time all treated plants were compared to untreated controls and visually evaluated for injury. Plant response ratings, summarized in Table A, are based on a 0 to 100 scale where 0 is no effect and 100 is complete control. A dash (-) response means no test result.

[2] = test system: blackgrass (Alopecurus myosuroides); test: Test A postemergence, blackgrass; conditions: visual rating after approx. 10 d, 0 to 100 scale, 0 no effect, 100 complete control
Excerpt: as §1

[3] = test system: ryegrass, Italian (Italian ryegrass, Lolium multiflorum); test: Test A preemergence, Italian ryegrass; conditions: visual rating after approx. 10 d, 0 to 100 scale, 0 no effect, 100 complete control
Excerpt: as §1

[4] = test system: wheat (Triticum aestivum); test: Test A postemergence, wheat; conditions: visual rating after approx. 10 d, 0 to 100 scale, 0 no effect, 100 complete control
Excerpt: as §1

[5] = test system: ducksalad (Heteranthera limosa); test: Test B flooded paddy test, ducksalad; conditions: 500 g ai/ha; applied to paddy water at 2-leaf stage; 13 to 15 d; scale 0 no effect to 100 complete control
Procedure: (§2) Plant species in the flooded paddy test selected from rice (Oryza sativa), sedge, umbrella (small-flower umbrella sedge, Cyperus difformis), ducksalad (Heteranthera limosa), and barnyardgrass (Echinochloa crus-galli) were grown to the 2-leaf stage for testing. At time of treatment, test pots were flooded to 3 cm above the soil surface, treated by application of test compounds directly to the paddy water, and then maintained at that water depth for the duration of the test. Treated plants and controls were maintained in a greenhouse for 13 to 15 d, after which time all species were compared to controls and visually evaluated. Plant response ratings, summarized in Table B, are based on a scale of 0 to 100 where 0 is no effect and 100 is complete control. A dash (-) response means no test result.

[6] = test system: galium (catchweed bedstraw, Galium aparine); test: Test A postemergence, galium; conditions: visual rating after approx. 10 d, 0 to 100 scale, 0 no effect, 100 complete control
Excerpt: as §1

[7] = test system: foxtail, giant (giant foxtail, Setaria faberii); test: Test A preemergence, giant foxtail; conditions: visual rating after approx. 10 d, 0 to 100 scale, 0 no effect, 100 complete control
Excerpt: as §1

[8] = test system: sedge, umbrella (small-flower umbrella sedge, Cyperus difformis); test: Test B flooded paddy test, umbrella sedge; conditions: 500 g ai/ha; applied to paddy water at 2-leaf stage; 13 to 15 d; scale 0 no effect to 100 complete control
Procedure: as §2

[9] = test system: pigweed (Amaranthus retroflexus); test: Test A preemergence, pigweed; conditions: visual rating after approx. 10 d, 0 to 100 scale, 0 no effect, 100 complete control
Excerpt: as §1

[10] = test system: foxtail, giant (giant foxtail, Setaria faberii); test: Test A postemergence, giant foxtail; conditions: visual rating after approx. 10 d, 0 to 100 scale, 0 no effect, 100 complete control
Excerpt: as §1

[11] = test system: barnyardgrass (Echinochloa crus-galli); test: Test A preemergence, barnyardgrass; conditions: visual rating after approx. 10 d, 0 to 100 scale, 0 no effect, 100 complete control
Excerpt: as §1

[12] = test system: kochia (Kochia scoparia); test: Test A preemergence, kochia; conditions: visual rating after approx. 10 d, 0 to 100 scale, 0 no effect, 100 complete control
Excerpt: as §1

[13] = test system: barnyardgrass (Echinochloa crus-galli); test: Test B flooded paddy test, barnyardgrass; conditions: 500 g ai/ha; applied to paddy water at 2-leaf stage; 13 to 15 d; scale 0 no effect to 100 complete control
Procedure: as §2

[14] = test system: ragweed (common ragweed, Ambrosia elatior); test: Test A postemergence, ragweed; conditions: visual rating after approx. 10 d, 0 to 100 scale, 0 no effect, 100 complete control
Excerpt: as §1

[15] = test system: rice (Oryza sativa); test: Test B flooded paddy test, rice; conditions: 500 g ai/ha; applied to paddy water at 2-leaf stage; 13 to 15 d; scale 0 no effect to 100 complete control
Procedure: as §2

[16] = test system: corn (Zea mays); test: Test A postemergence, corn; conditions: visual rating after approx. 10 d, 0 to 100 scale, 0 no effect, 100 complete control
Excerpt: as §1

[17] = test system: barnyardgrass (Echinochloa crus-galli); test: Test A postemergence, barnyardgrass; conditions: visual rating after approx. 10 d, 0 to 100 scale, 0 no effect, 100 complete control
Excerpt: as §1

[18] = test system: ryegrass, Italian (Italian ryegrass, Lolium multiflorum); test: Test A postemergence, Italian ryegrass; conditions: visual rating after approx. 10 d, 0 to 100 scale, 0 no effect, 100 complete control
Excerpt: as §1

[19] = test system: pigweed (Amaranthus retroflexus); test: Test A postemergence, pigweed; conditions: visual rating after approx. 10 d, 0 to 100 scale, 0 no effect, 100 complete control
Excerpt: as §1

[20] = test system: kochia (Kochia scoparia); test: Test A postemergence, kochia; conditions: visual rating after approx. 10 d, 0 to 100 scale, 0 no effect, 100 complete control
Excerpt: as §1

Row | SMILES | Plant response rating, Ragweed ([1]; 125 g ai/ha) | Plant response rating, Ragweed ([1]; 500 g ai/ha) | Plant response rating, Blackgrass ([2]; 125 g ai/ha) | Plant response rating, Blackgrass ([2]; 500 g ai/ha) | Plant response rating, Ryegrass, Italian ([3]; 125 g ai/ha) | Plant response rating, Ryegrass, Italian ([3]; 500 g ai/ha) | Plant response rating, Wheat ([4]; 125 g ai/ha) | Plant response rating, Wheat ([4]; 500 g ai/ha) | Plant response rating, Flood, Ducksalad [5] | Plant response rating, Galium ([6]; 125 g ai/ha) | Plant response rating, Galium ([6]; 500 g ai/ha) | Plant response rating, Foxtail, Giant ([7]; 125 g ai/ha) | Plant response rating, Foxtail, Giant ([7]; 500 g ai/ha) | Plant response rating, Flood, Sedge, Umbrella [8] | Plant response rating, Pigweed ([9]; 125 g ai/ha) | Plant response rating, Pigweed ([9]; 500 g ai/ha) | Plant response rating, Foxtail, Giant ([10]; 125 g ai/ha) | Plant response rating, Foxtail, Giant ([10]; 500 g ai/ha) | Plant response rating, Barnyardgrass ([11]; 125 g ai/ha) | Plant response rating, Barnyardgrass ([11]; 500 g ai/ha) | further results
1 | O=C(Nc1cccc(F)c1C(F)(F)F)C1C(=O)OCC1c1cccc(C(F)(F)F)c1 (racemic) [Compound 13] | 0 | 0 | 0 | 0 | 0 | 0 | 0 | 0 | 0 | 0 | 0 | 40 | 70 | 0 | 0 | 0 | 20 | 40 | 0 | 0 | Plant response rating, Kochia ([12]; 125 g ai/ha): 0; Plant response rating, Kochia ([12]; 500 g ai/ha): 0; Plant response rating, Flood, Barnyardgrass [13]: 0; Plant response rating, Ragweed ([14]; 125 g ai/ha): 0; Plant response rating, Ragweed ([14]; 500 g ai/ha): 0; Plant response rating, Flood, Rice [15]: 0; Plant response rating, Corn ([16]; 125 g ai/ha): 0; Plant response rating, Corn ([16]; 500 g ai/ha): 0; Plant response rating, Barnyardgrass ([17]; 125 g ai/ha): 0; Plant response rating, Barnyardgrass ([17]; 500 g ai/ha): 0; Plant response rating, Ryegrass, Italian ([18]; 125 g ai/ha): 0; Plant response rating, Ryegrass, Italian ([18]; 500 g ai/ha): 0; Plant response rating, Pigweed ([19]; 125 g ai/ha): 0; Plant response rating, Pigweed ([19]; 500 g ai/ha): 0; Plant response rating, Kochia ([20]; 125 g ai/ha): 0; Plant response rating, Kochia ([20]; 500 g ai/ha): 0
2 | O=C(Nc1cccc(F)c1C(F)(F)F)C1C(=O)OCC1c1ccc(F)c(C(F)(F)F)c1 (racemic) [Compound 18] | 0 | 0 | 0 | 0 | 0 | 0 | 0 | 0 | 0 | 0 | 0 | 0 | 40 | 0 | 0 | 0 | 0 | 30 | 0 | 0 | Plant response rating, Kochia ([12]; 125 g ai/ha): 0; Plant response rating, Kochia ([12]; 500 g ai/ha): 0; Plant response rating, Flood, Barnyardgrass [13]: 0; Plant response rating, Ragweed ([14]; 125 g ai/ha): 0; Plant response rating, Ragweed ([14]; 500 g ai/ha): 0; Plant response rating, Flood, Rice [15]: 0; Plant response rating, Corn ([16]; 125 g ai/ha): 0; Plant response rating, Corn ([16]; 500 g ai/ha): 0; Plant response rating, Barnyardgrass ([17]; 125 g ai/ha): 0; Plant response rating, Barnyardgrass ([17]; 500 g ai/ha): 0; Plant response rating, Ryegrass, Italian ([18]; 125 g ai/ha): 0; Plant response rating, Ryegrass, Italian ([18]; 500 g ai/ha): 0; Plant response rating, Pigweed ([19]; 125 g ai/ha): 0; Plant response rating, Pigweed ([19]; 500 g ai/ha): 0; Plant response rating, Kochia ([20]; 125 g ai/ha): 0; Plant response rating, Kochia ([20]; 500 g ai/ha): 0
